Reference: patent publication US4552878A, “Benzo- and thieno-triazine-1,2,3 ones-4” (Lipha, Lyonnaise Industrielle Pharmaceutique, priority 1982, dated 1985)
Counter-ions that a name gives are not always drawn.

Key:
[1] = Acute oral toxicity, lethal doses 50 (LD50); details: mouse, in vivo
[2] = system: central effects of 5-hydroxytryptophan; test: Potentiation of the central effects of 5-hydroxytryptophan (5-HTP); type: in vivo; details: Mus musculus, ip; Swiss mice, I.P., 30 minutes before 300 mg/kg 5-HTP I.P.; observed 30 min later for 1 min; read-out: Potentiation of the 5-HTP ED50 DE50
Description: This potentiation objectifying the axonal blocking of the reabsorption of the seratonin at the serotoninergic nerve ends was studied by the method described by T. M. Pugsley and […] The mice are observed 30 min later, for 1 min, during which the following sterotyped movements are classified: extension of the hind paws, trembling, excitement, head shaking.

SMILES: O=c1c2ccccc2nnn1CCCN1CCN(c2cccc(Cl)c2)CC1 [Example 1, [[(chloro-3 phenyl)-4 piperazinyl-1]-3 propyl]-3-3H-benzotriazine-1,2,3 one-4, hydrochloride]
- LD50 [1]: > 3200 mg/kg
- ED50 [2]: 3 mg/kg

SMILES: O=c1c2ccccc2nnn1CCCN1CCN(c2ccccc2Cl)CC1 [Example 6, [[(Chloro-2 phenyl-4 piperazinyl-1]-3 propyl]3-3H-benzotriazine-1,2,3 one 4, hydrochloride]
- ED50 [2]: 12 mg/kg

SMILES: Cc1ccccc1N1CCN(CCCn2nnc3ccccc3c2=O)CC1 [Example 9, [[(Methyl-2 phenyl)-4 piperazinyl-1]-3 propyl]-3-3H-benzotriazine-1,2,3 one-4 hydrochloride]
- ED50 [2]: 5 mg/kg

SMILES: O=c1c2ccccc2nnn1CCCN1CCN(c2cccc(F)c2)CC1 [Example 10, [[(Fluoro-3phenyl)-4 piperazinyl-1]-3 propyl]-3H-benzotriazine-1,2,3 one-4, hydrochloride]
- LD50 [1]: 1500 mg/kg
- ED50 [2]: 14 mg/kg

SMILES: O=c1c2ccccc2nnn1CCCN1CCN(c2ccccc2)CC1 [Example 11, [(Phenyl-4 piperazinyl-1)-3 propyl]-3-3H-benzotriazine-1,2,3 one-4 hydrochloride]
- LD50 [1]: 1000 mg/kg
- ED50 [2]: 8 mg/kg

SMILES: COc1cccc(N2CCN(CCCn3nnc4ccccc4c3=O)CC2)c1 [Example 15, [[(Methoxy-3 phenyl)-4 piperazinyl-1]-3 propyl]-3-3H-benzotriazine-1,2,3 one-4]
- ED50 [2]: 9 mg/kg

SMILES: COc1ccc(N2CCN(CCCn3nnc4ccccc4c3=O)CC2)cc1 [Example 16, [[(Methoxy-4 phenyl)-4 piperazinyl-1]-3propyl]-3-3H-benzotriazine-1,2,3 one-4]
- ED50 [2]: 11 mg/kg

SMILES: O=c1c2ccc(Cl)cc2nnn1CCCN1CCN(c2cccc(Cl)c2)CC1 [Example 19, Chloro-7 [[(chloro-3 phenyl)-4 piperazinyl-1]-3 propyl]-3-3H-benzotriazine-1,2,3 one-4 hydrochloride]
- ED50 [2]: 10 mg/kg

SMILES: Cc1ccc2nnn(CCCN3CCN(c4cccc(Cl)c4)CC3)c(=O)c2c1 [Example 20, [[(Chloro-3 phenyl)-1 piperazinyl-1]-3 propyl]-3 methyl-6-3H-benzotriazine-1,2,3 one-4, hydrochloride]
- LD50 [1]: > 3200 mg/kg
- ED50 [2]: 8 mg/kg

SMILES: O=c1c2ccsc2nnn1CCCN1CCN(c2cccc(Cl)c2)CC1 [Example 23, [[(Chloro-3 phenyl)-4-piperazinyl-1]3 propyl]-3-3H-thieno[2,3-d]triazine-1,2,3 one-4 hydrochloride]
- LD50 [1]: 1060 mg/kg
- ED50 [2]: 3 mg/kg

SMILES: O=c1c2ccccc2nnn1CCCN1CCN(c2ccc(F)c(Cl)c2)CC1 [Example 27, [[(Chloro-3 fluoro-4 phenyl)-4 piperazinyl-1]-3 propyl]-3-3H-benzotriazine-1,2,3 one-4 hydrochloride]
- ED50 [2]: 8 mg/kg

SMILES: O=c1c2cc(Cl)ccc2nnn1CCCN1CCN(c2ccccc2)CC1 [Example 28, Chloro-6[(phenyl-4 piperazinyl-1)-3 propyl]-3-3H-benzotriazine-1,2,3 one-4 dihyrochloride]
- ED50 [2]: 5 mg/kg

SMILES: COc1ccc(N2CCN(CCCn3nnc4ccccc4c3=O)CC2)cc1OC [Example 29, [[(Dimethoxy-3,4 phenyl)-4 piperazinyl-1]-3 propyl]-3-3H-benzotriazine-1,2,3 one-4 dihydrochloride]
- ED50 [2]: 12 mg/kg

SMILES: Cl.O=c1n(CCCN2CCN(c3cccc(Cl)c3)CC2)nc2ccccn12 [Trazodone Hydrochloride, 2-[3-[4-(3-chlorophenyl)-1-piperazinyl]propyl]-1,2,4-triazolo[4,3-a]pyridin-3 (2H)-one hydrochloride, reference compound]
- LD50 [1]: 650 mg/kg
